{"source": "paper PMC12082688", "about": "“Temporal Distribution of Imidacloprid and Its Metabolites in Laying Hens: An Evaluation of the Potential Impact on Food Safety” (Journal of Agricultural and Food Chemistry, 2025)", "key": {"[1]": {"test": "Distribution of IMI and metabolites in tissues, eggs and feces after a single oral gavage dose, LC-MS/MS", "type": "in vivo", "conditions": "for metabolite abundance in tissues: 1 and 10 mg/kg IMI single oral gavage, all sampled tissues; for metabolite concentrations in eggs versus regulatory thresholds: eggs within 24 h postexposure to IMI", "description": "(§1) Seventy-five, 61-week-old, Hy-line brown hens weighing 1.6–2.4 kg were housed in individual, 22” × 24” × 16” cages with nest box curtains and scratch pads, on two levels. Hens were acclimatized for 1 week on a 16-h light:8-h dark cycle. A wall exhaust fan maintained the temperature between 17–19 °C. A standard layer diet containing corn and soybean meal, 4.9% calcium and 16.5% protein was available ad libitum (Webberville Feed & Grain Co., Webberville, MI, USA). Water was available ad libitum. Hens were weighed and randomly assigned to one of three treatment groups (n = 5 hens/group) that received imidacloprid at 1 and 10% of a reported LD50 for chickens corresponding to 1 and 10 mg/kg of IMI or a placebo treatment (Lafeber Nutristart 1:3 in water; Lafeber Co., Cornell, Il, USA).[14] Birds were fasted overnight. Prior to gavage, crops were palpated to ensure that they were empty.\n(§2) Analytical grade (active) imidacloprid powder (ChemService, West Chester, PA, USA) was dissolved in ethanol (10% v/v), mixed with corn oil, and then further dissolved in Lafeber Nutristart (1:3 in water; Lafeber Co., Cornell, Il, USA) to obtain final concentrations of 0.8 or 0.08 mg/mL.[8],[14] Treatments were prepared on the morning of administration, protected from light, kept on ice, and mixed thoroughly prior to administration. The concentrations and purity of IMI were verified before the start of the trial. IMI was administered by oral gavage using a 60-cc syringe and a 10 Fr × 16 in. red rubber urethral feeding catheter. After each administration, the catheter was flushed with 5 mL of water. Birds received a similar volume of treatment or placebo (20–30 mL).\n(§3) Approximately 2–3 mL of blood was sampled from the brachial vein at 1, 2, 4, 24, 48, and 168 h postexposure, transferred into 2 mL EDTA tubes, sat at room temperature for 1–2 h, centrifuged at 1200g for 10 min, plasma was transferred into microcentrifuge tubes, and samples were kept at 4 °C until analysis within 1 week of study completion. Birds were humanely euthanized by cervical dislocation (n = 5 hens/treatment/time point). At 1, 4, 24, 48, and 168 h postexposure, approximately 1.0 g from the left pectoralis major, left quadriceps, left liver lobe, coelomic fat pad, spleen, right cranial and middle kidney lobes, and brain (cerebrum, optic lobes, cerebellum, brainstem) were collected, placed in Whirl-Pak sample bags (Nasco Sampling LLC, Madison, WI, USA), and kept at −20 °C until analysis. Whole eggs that were spontaneously laid or near completion in the shell gland were collected at 24 (n = 27), 48 (n = 24), 72 (n = 13), and 168 h (n = 12) after treatment and cracked in half, and yolk and albumen were kept in screw top specimen containers at −20 °C until analysis. […] Doses and time points were based on similar studies done in chickens[8] and Japanese Quail.[7] All animal procedures were approved by the Institutional Animal Care and Use Committee (IACUC) at MSU no. PROTO202300371.\nTissues were prepared for analysis by sectioning 0.5 g of homogeneous tissue (free of connective and vascular tissue) and placing it in a 7 mL Precellys bead tissue homogenization tube. Egg yolk and albumin from individual eggs were homogenized with an Omni International (Kennesaw, GA, USA) 125/TM125-11 hand-held homogenizer with a stainless steel 7 mm generator probe. Similar to tissues, 0.5 g of egg homogenate was placed in a 7 mL Precellys bead tissue homogenization tube. Two milliliters of acetonitrile containing 1 ng/mL of ISTD was added. Tissues were homogenized at room temperature with a Precellys Evolution Homogenizer (Bertin Technologies, Montigny-Le-Bretonneux, France): Speed–4500g, Cycle 2 × 20 s with a 20 s pause between cycles. The homogenized tissues and egg were centrifuged at 5400g for 10 min to pellet solid material at the bottom of the tube. 250 μL of the clear top layer from each tube was transferred to an autosampler vial for LC-MS/MS analysis. […]"}, "[2]": {"test": "Plasma concentration versus time profile after a single oral gavage dose, LC-MS/MS", "type": "in vivo, Hy-line brown hens", "conditions": "for time until plasma concentration below the limit of quantitation: 1 mg/kg single oral gavage, LOQ 0.5 ng/mL; for Tmax: female, Hy-line brown, in vivo", "description": "as §1, §2, §3\nNeonicotinoids were extracted from 200 μL of plasma, which was added to a test tube with […] of 0.5 ng/mL ISTD in acetonitrile. The mixture was vortexed for 40 s until well-mixed and then centrifuged for 5 min at 3000g. The supernatant was removed and filtered through a 0.2 μm PTFE membrane filter into an autosampler vial for LC-MS/MS analysis.\nAnalysis was performed with a liquid chromatographic-tandem mass spectrometer, an AB Sciex 6500+ ESI-MS/MS (SCIEX, Framingham, MA, USA) interfaced to a Shimadzu LC (Shimadzu Corp, Kyoto, Japan). Chromatography was achieved using the Kinetex F5:2.6 μm (100 mm × 3 mm) column (Phenomenex, Torrance, CA, USA). The column temperature was maintained at 40 °C with a column heater. Injection volume was 10 μL. The mobile phase consisted of 0.1% formic acid in Milli-Q water (mobile phase A) and 0.1% formic acid in acetonitrile (mobile phase B) at a flow rate of 0.5 mL/min. […]"}, "[3]": {"conditions": "cited from earlier work"}, "[4]": {"system": "birds", "parameters": "method as in PMID 32274821", "conditions": "cited from earlier work"}, "[5]": {"conditions": "in vivo; cited from earlier work"}, "[6]": {"test": "IMI equivalents (sum of IMI and 6-chloropyridinyl moiety metabolites) in poultry products versus CFR/EFSA tolerance", "parameters": "species or system Hy-line brown hens", "conditions": "in vivo", "text": "The specific absorption, distribution, metabolism, and excretion profile of IMI in laying hens and the presence of IMI and its metabolites in eggs are unknown. Therefore, the primary goal of this study was to evaluate food safety in the context of IMI’s temporal distribution and metabolite profile. To achieve this, IMI and its 6-chloropyridinyl moiety-containing metabolites (IMI-urea, IMI-olefin, desnitro-IMI, 5-OH-IMI, and 6-chloronicotinic acid) were quantitatively measured in blood, tissue, feces, and eggs following a single subclinical dose over time. These concentrations were measured using a liquid chromatography tandem mass spectrometry (LC-MS/MS) method and compared with tolerances established in the Code of Federal Regulations (CFR) and Article 12 of the European Food Safety Authority (EFSA) Regulation No 396/2005.[12],[13]\nas §3\nTissues were prepared for analysis by sectioning 0.5 g of homogeneous tissue (free of connective and vascular tissue) and placing it in a 7 mL Precellys bead tissue homogenization tube. Egg yolk and albumin from individual eggs were homogenized with an Omni International (Kennesaw, GA, USA) 125/TM125-11 hand-held homogenizer with a stainless steel 7 mm generator probe. Similar to tissues, 0.5 g of egg homogenate was placed in a 7 mL Precellys bead tissue homogenization tube. Two milliliters of acetonitrile containing 1 ng/mL of ISTD was added. […]"}, "[7]": {"system": "layers", "conditions": "cited from earlier work"}, "[8]": {"conditions": "in vivo, po; cited from earlier work"}, "[9]": {"system": "laying hens", "test": "Response to treatment: clinical monitoring, post-mortem examination and daily egg production", "type": "in vivo", "conditions": "1 or 10 mg/kg single oral gavage", "description": "as §1\nAnalytical grade (active) imidacloprid powder (ChemService, West Chester, PA, USA) was dissolved in ethanol (10% v/v), mixed with corn oil, and then further dissolved in Lafeber Nutristart (1:3 in water; Lafeber Co., Cornell, Il, USA) to obtain final concentrations of 0.8 or 0.08 mg/mL.[8],[14] Treatments were prepared on the morning of administration, protected from light, kept on ice, and mixed thoroughly prior to administration. […]\nBirds were closely monitored postgavage for any adverse reactions. […]"}, "[10]": {"system": "chickens", "conditions": "in vivo; cited from earlier work"}, "[11]": {"conditions": "10 mg/kg single oral gavage, read-out: time of peak concentration in plasma"}, "[12]": {"conditions": "domestic chickens, 15 days after the last exposure following daily exposure for 7 days"}}, "note": "“Also recorded” adds a separate entry of the source. Where two headings read alike, the source gives them in different places.", "data": [{"smiles": "O=C(O)c1ccc(O)nc1", "note": "[6-OH-NA, 6-hydroxy nicotinic acid]", "values": [{"measurement": "presence in fecal matter", "setting": "[1]; feces collected after IMI single oral gavage", "value": "evidence in fecal matter for the formation; also recorded: presence of 6-OH-NA in fecal matter collected at 24 and 48 h post treatment"}]}, {"smiles": "O=[N+]([O-])/N=C1\\NCC(O)N1Cc1ccc(Cl)nc1", "note": "(stereo not shown) [5-OH-IMI, 5-hydroxyimidacloprid]", "values": [{"measurement": "time until plasma concentration below the limit of quantitation", "setting": "[2]", "value": "≤ 24", "unit": "h"}, {"measurement": "Tmax", "setting": "[2]; [11]", "value": 4, "unit": "h"}, {"measurement": "presence in feces, liver, muscle, spleen, kidney and brain", "setting": "[3]; [12]", "value": "detected"}, {"measurement": "metabolite abundance in tissues", "setting": "[1]", "value": "metabolized predominantly to 5-OH-IMI"}, {"measurement": "metabolite concentrations in eggs versus regulatory thresholds", "setting": "[1]", "value": "exceeding current regulatory thresholds"}]}, {"smiles": "O=[N+]([O-])Nc1nccn1Cc1ccc(Cl)nc1", "note": "[IMI-olefin, imidacloprid-olefin]", "values": [{"measurement": "time until plasma concentration below the limit of quantitation", "setting": "[2]", "value": "≤ 24", "unit": "h"}, {"measurement": "time of peak concentration in plasma", "setting": "[2]; 10 mg/kg single oral gavage", "value": 4, "unit": "h"}, {"measurement": "presence in feces, liver, muscle, spleen, kidney and brain", "setting": "[3]; [12]", "value": "detected"}, {"measurement": "metabolite abundance in tissues", "setting": "[1]", "value": "more abundant metabolite observed in most tissues except in the kidney where it was notably absent"}, {"measurement": "metabolite concentrations in eggs versus regulatory thresholds", "setting": "[1]", "value": "exceeding current regulatory thresholds"}]}, {"smiles": "N=C1NCCN1Cc1ccc(Cl)nc1", "note": "[desnitro-IMI, desnitro imidacloprid]", "values": [{"measurement": "Tmax", "setting": "[2]; [11]", "value": 4, "unit": "h"}]}, {"smiles": "O=C1NCCN1Cc1ccc(Cl)nc1", "note": "[IMI-urea, imidacloprid urea]", "values": [{"measurement": "time of peak concentration in plasma", "setting": "[2]; 10 mg/kg single oral gavage", "value": 4, "unit": "h"}, {"measurement": "presence of metabolite in sample types", "setting": "[1]; 10 mg/kg IMI single oral gavage", "value": "present in the 10 mg/kg treatment group for all sample types except in the liver"}, {"measurement": "metabolite abundance in tissues", "setting": "[1]", "value": "equally abundant in kidney with 5-OH-IMI"}, {"measurement": "metabolite concentrations in eggs versus regulatory thresholds", "setting": "[1]", "value": "exceeding current regulatory thresholds"}]}, {"smiles": "O=[N+]([O-])NC1=NCCN1Cc1ccc(Cl)nc1", "note": "[IMI]", "values": [{"measurement": "Tmax", "setting": "[2]; po, 1 mg/kg", "value": "≤ 1", "unit": "h"}, {"measurement": "Tmax", "setting": "[2]; po, 10 mg/kg", "value": 4, "unit": "h"}, {"measurement": "clinical signs", "setting": "[4]; 10 mg/kg IMI administration", "value": "moderate sedation occurred within minutes"}, {"measurement": "clinical signs", "setting": "[4]; birds given 1 mg/kg", "value": "no outward clinical signs"}, {"measurement": "presence in feces, liver, muscle, spleen, kidney and brain", "setting": "[3]; in vivo", "value": "detected"}, {"measurement": "time of absorption into the bloodstream", "setting": "[5]", "value": "≤ 1", "unit": "h"}, {"measurement": "time of excretion in feces", "setting": "[5]", "value": "≤ 24", "unit": "h"}, {"measurement": "IMI equivalents in adipose tissue versus 50 ppb (50 ng/g) threshold", "setting": "[6]", "value": "no animal exceeded"}, {"measurement": "IMI equivalents in brain, liver, spleen and kidney versus threshold (50 ng/g)", "setting": "[6]", "value": "surpassed the threshold for most animals"}, {"measurement": "IMI equivalents in liver and spleen versus threshold (50 ng/g)", "setting": "[6]", "value": "remained in excess of the threshold for several animals"}, {"measurement": "eggs with IMI equivalents exceeding the CFR regulatory threshold of 20 ppb (20 ng/g)", "setting": "[6]", "value": "6 of 10"}, {"measurement": "LD50", "setting": "[7]", "value": 104.1, "unit": "mg/kg"}, {"measurement": "residues in liver, pectoral muscle, brain and kidney", "setting": "[8]", "value": "detected"}, {"measurement": "gross lesions at post-mortem examination", "setting": "[9]", "value": "no gross lesions were observed"}, {"measurement": "adjusted effective dose (ED50) for neurologic signs", "setting": "[10]", "value": 11.2, "unit": "mg/kg/day"}]}]}
